In assay [1] the test system is Swiss albino mice. In words: Hot plate test, involvement of adrenergic receptors. Type of assay: in vivo. The note with it: single animals. How it is done:
The analgesic effects of the isolated compounds were measured using the hot plate method at a monitored temperature of 55 ± 0.2°C. The Swiss albino mice were positioned on the heated surface of the hot plate, and the period from placement to the onset of licking their hind paws or starting jump movements was noted as the response latency (thermal reactions). The test compounds were injected intraperitoneally. […] The animal models were checked for thermal reactions at various time intervals after sample administration.
The outcomes of the positive control and tested compounds were compared in animals pretreated with yohimbine. […] Additionally, clonidine at a dose of 3 μg/kg was intravenously administered. The animals were then subjected to the hot plate method, as reported before.
A general note: In hot-plate and tail-flick tests a longer latency is read as antinociception.

Another assay has as its system mice. In words: Carrageenan-induced paw edema. As to conditions: for % edema volume inhibition (mean): aspirin 10 mg/kg; for Paw edema percent inhibition, individual values / Paw edema, individual values: single animals. The format is in vivo. On the procedure:
The animals under study were divided into different groups. Prior to the experiment, the animals had only access to water. […] Additionally, the isolated compounds being tested were given 30 min before injecting 0.05 ml of 1% carrageenan into the sub-plantar region of the paw. To measure the volume changes in the paw, a digital plethysmometer was employed. Readings were taken before and after the carrageenan injection at hourly intervals over a total period of 5 h.

The subject of assay [2] is Swiss albino mice. As to the kind of experiment: Acetic acid-induced writhing test. The format is in vivo. As to conditions: for % analgesic activity (writhing inhibition) / Mean writhes: dose 10 mg/kg, oral; for Mean writhes: writhes counted 5-30 min after acetic acid, 10 mg/kg. On the procedure: An anti-nociceptive assessment was performed on Swiss albino mice of both sexes, sourced from the National Institute of Health, Islamabad, Pakistan. […] Mice of either sex were divided into different groups, with five mice in each group. The test samples were carefully administered orally, with doses of 250, 500, 1000, and 2000 mg/kg.
I. rugosus was evaluated for its analgesic potential through an acetic acid-induced writhing test. Oral administration of the test samples was carried out using specified doses. After 30 min of interval, 10 ml/kg of acetic acid (0.6%) was injected into the mice. Group I served as the control and received 0.5% Tween-80 (3 ml/kg), group II received diclofenac sodium (10 mg/kg), and groups III and IV received test compounds. The count of writhes was recorded between 5 and 30 min, following the i/p injection of acetic acid ([Franzotti et al., 2000]).
On the technique in general: In writhing tests, fewer writhes than in controls are read as antinociception.

The target of another assay is T1, 5-LOX (Glycine max, UniProt P08170).
T1 sequence (P08170 1-839): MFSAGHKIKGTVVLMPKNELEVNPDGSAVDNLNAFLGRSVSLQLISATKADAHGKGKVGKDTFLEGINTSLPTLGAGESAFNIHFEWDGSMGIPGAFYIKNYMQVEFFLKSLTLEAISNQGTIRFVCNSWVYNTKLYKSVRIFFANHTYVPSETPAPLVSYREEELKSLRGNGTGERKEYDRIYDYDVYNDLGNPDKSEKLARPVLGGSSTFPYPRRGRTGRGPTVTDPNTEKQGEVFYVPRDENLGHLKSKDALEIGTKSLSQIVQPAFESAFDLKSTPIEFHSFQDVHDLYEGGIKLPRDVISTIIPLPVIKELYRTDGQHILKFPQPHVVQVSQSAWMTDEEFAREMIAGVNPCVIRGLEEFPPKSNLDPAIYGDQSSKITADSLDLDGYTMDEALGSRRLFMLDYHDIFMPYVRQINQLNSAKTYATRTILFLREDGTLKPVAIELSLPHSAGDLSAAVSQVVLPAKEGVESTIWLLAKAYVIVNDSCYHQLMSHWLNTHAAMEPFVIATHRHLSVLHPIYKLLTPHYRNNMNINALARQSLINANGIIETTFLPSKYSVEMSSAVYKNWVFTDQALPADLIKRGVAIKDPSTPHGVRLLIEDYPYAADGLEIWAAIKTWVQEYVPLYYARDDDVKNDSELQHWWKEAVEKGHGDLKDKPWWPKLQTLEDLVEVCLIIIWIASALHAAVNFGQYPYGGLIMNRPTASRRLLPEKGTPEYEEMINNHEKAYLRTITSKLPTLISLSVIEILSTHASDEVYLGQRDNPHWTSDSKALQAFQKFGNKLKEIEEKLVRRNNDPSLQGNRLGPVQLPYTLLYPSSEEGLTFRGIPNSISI
In words: Lipoxygenase (5-LOX) inhibitory activity. Type of assay: biochemical. On the procedure: The enzyme solution with a concentration of 10,000 U/ml was prepared. […] A solution (80 mM) of linoleic acid (substrate) was made. Likewise, a 50 mM phosphate buffer solution with a pH of 6.3 was prepared. The substrate, enzyme, and buffer were combined in equal proportions, each in a 2 ml volume. […] The inhibition percentage was determined by comparing the absorbance of the test samples with that of the positive control.

Several values for one entry are separate records, joined by “and”; a condition that tells them apart may be missing. Equal entries are not always repeated. Marks after values point to notes of the source that are not given here.

For `Clc1cccc(Cl)c1N=C1NCCN1` [Clonidine, reference compound], the “Hot plate analysis (adrenergic), individual values” is 9.56 and 8.88 and 10.88 in the assay on Swiss albino mice [1] (30 Minutes); 10.6 and 9.32 and 10.99 with Swiss albino mice [1] (45 Minutes); 9.26 and 10.12 and 10.98 with Swiss albino mice [1] (15 minutes); 8.2 and 10.01 and 7.59 in the assay with Swiss albino mice [1] (60 minutes); 8.4 and 10.26 and 9.3 in the assay with Swiss albino mice [1] (90 minutes).
For the compound `CC(=O)Oc1ccccc1C(=O)O` [Aspirin, aspirin, reference compound], the “% edema volume inhibition (mean)” value in the assay on mice (1st hour after carrageenan) is reported as 51.772%; in the assay on mice (1st hour after carrageenan, listed as aspirin), 51.77 ± 0.10%; in the assay on mice (2nd hour after carrageenan), 56.106%; in the assay on mice (3rd hour after carrageenan), 57.334%; in the assay on mice (4th hour after carrageenan), 60.956%; with mice (5th hour after carrageenan), 57.694%. Further, the “% edema volume inhibition (mean)” value in the assay with mice (5th hour after carrageenan, listed as aspirin) was 57.77 ± 0.40%. The “Paw edema percent inhibition, individual values” was 52.34% and 51.04% and 52.35% and 51.83% and 51.3% in the assay on mice (hour 1); 59.13% and 52.65% and 58.06% and 56.7% and 53.99% in the assay with mice (hour 2); 59.52% and 56.85% and 58.59% and 57.12% and 54.59% with mice (hour 3); 63.3% and 60.42% and 61.07% and 60.88% and 59.11% in the assay on mice (hour 4); 59.25% and 55.95% and 53.49% and 59.23% and 60.55% in the assay on mice (hour 5). Also, the “Paw edema, individual values” in the assay with mice (hour 1) was 0.362 and 0.375 and 0.365 and 0.369 and 0.373; with mice (hour 2) it was 0.302 and 0.349 and 0.31 and 0.32 and 0.34; in the assay on mice (hour 3) it was 0.304 and 0.322 and 0.311 and 0.341; in the assay with mice (hour 4) it was 0.275 and 0.301 and 0.297 and 0.312; in the assay with mice (hour 5) it was 0.298 and 0.322 and 0.34 and 0.289.
Turning to `O=C(O)Cc1ccccc1Nc1c(Cl)cccc1Cl` [Positive control, diclofenac sodium, reference compound], the “Writhes, individual values” with Swiss albino mice [2] (10mg, single animals) is 16.1 and 17.8 and 15.6. The “% analgesic activity (writhing inhibition)” value in the assay with Swiss albino mice [2] is 73.02^*** %; in the assay with Swiss albino mice [2] (listed as positive control), 73.02%. Besides, the Mean writhes in the assay with Swiss albino mice [2] turned out to be 16.5 ± 0.76; with Swiss albino mice [2] (listed as Positive Control), 16.5.
For the compound `CC(c1cc2ccccc2s1)N(O)C(N)=O` (stereo not shown) [Zileuton, reference compound], the inhibition at 62.5 µg/mL on 5-LOX (read-out: % inhibition 5-LOX (mean ± SEM), 62.5 µg/ml) stood at 79.8 ± 0.37%. Besides, on 5-LOX (read-out: % inhibition 5-LOX (mean ± SEM), 250 µg/ml), the inhibition at 250 µg/mL was 88.98 ± 0.85%. In addition, the inhibition at 500 µg/mL on 5-LOX (read-out: % inhibition 5-LOX (mean ± SEM), 500 µg/ml) was determined as 92.22 ± 0.11%. For the same compound, the inhibition at 1000 µg/mL on 5-LOX (read-out: % inhibition 5-LOX (mean ± SEM), 1000 µg/ml) is 95.2 ± 0.15%.

These data come from PMC10897015, “Investigation of anti-nociceptive, anti-inflammatory potential and ADMET studies of pure compounds isolated from Isodon rugosus Wall. ex Benth” (Frontiers in Pharmacology, 2024).
